The assay concerns cetuximab IgG. Briefly: Surface plasmon resonance binding kinetics of meditope variants to cetuximab. Conditions: SPR; for k a / k d: Biacore T100, cetuximab IgG amine-coupled to CM5 chip (5000 RU), HBS-EP+ pH 7.4, flow 30 µl min^−1; for k a: error <38% for values of variants marked ‡; for k d: off-rate independent of peptide concentration.

With `CC(C)C[C@@H]1NC(=O)[C@H](CCCNC(=N)N)NC(=O)[C@H](CCCNC(=N)N)NC(=O)[C@H]([C@@H](C)O)NC(=O)[C@H](CO)NC(=O)[C@H](CC(C)C)NC(=O)[C@H](CC(=O)O)NC(=O)[C@H](Cc2ccccc2)NC(=O)[C@H](CCC(N)=O)NC(=O)CCSSC[C@@H](C(=O)O)NC(=O)[C@H](CCCCN)NC1=O`, the k a stood at 2.1 M^−1 s^−1 × 10^4 and the k d was 0.012 s⁻¹. The “decrease in the on-rate compared with the long meditope” value (ratio of k a) is listed as approximately 4.4 fold.

In turn, `CC(=O)N[C@H]1CSSC[C@@H](C(N)=O)NC(=O)[C@H](CCCCN)NC(=O)[C@H](CC(C)C)NC(=O)[C@H](CCCNC(=N)N)NC(=O)[C@H](CCCNC(=N)N)NC(=O)[C@H]([C@@H](C)O)NC(=O)[C@H](CO)NC(=O)[C@H](CC(C)C)NC(=O)[C@H](CC(=O)O)NC(=O)[C@H](Cc2ccccc2)NC(=O)[C@H](CCC(N)=O)NC1=O` gave a k a of 15 M^−1 s^−1 × 10^4 and a k d of 0.011 s⁻¹. Also, the “increase in affinity compared with the original meditope” value (ratio of K d to the original disulfide meditope) is approximately 2.3 fold.

On to `CC(C)C[C@@H]1NC(=O)[C@H](CCCNC(=N)N)NC(=O)[C@H](CCCNC(=N)N)NC(=O)[C@H]([C@@H](C)O)NC(=O)[C@H](CO)NC(=O)[C@H](CC(C)C)NC(=O)[C@H](CC(=O)O)NC(=O)[C@H](Cc2ccccc2)NC(=O)[C@H](CCC(N)=O)NC(=O)CCCCCCNC(=O)[C@H](CCCCN)NC1=O`, for which the k a is listed as 3.8 M^−1 s^−1 × 10^4 and the k d amounted to 0.064 s⁻¹.

Molecule `CC(=O)N[C@H]1CSSC[C@@H](C(=O)NCC(=O)NCC(=O)N[C@@H](CO)C(=O)N[C@@H](CCCCN)C(=O)O)NC(=O)[C@H](CCCNC(=N)N)NC(=O)[C@H](CC(C)C)NC(=O)[C@H](CCCNC(=N)N)NC(=O)[C@H](CCCNC(=N)N)NC(=O)[C@H]([C@@H](C)O)NC(=O)[C@H](CO)NC(=O)[C@H](CC(C)C)NC(=O)[C@H](CC(=O)O)NC(=O)[C@H](Cc2ccccc2)NC(=O)[C@H](CCC(N)=O)NC1=O` came in with a k d of 0.010 s⁻¹.

With `CC(C)C[C@@H]1NC(=O)[C@H](CCCNC(=N)N)NC(=O)[C@H](CCCNC(=N)N)NC(=O)[C@H]([C@@H](C)O)NC(=O)[C@H](CO)NC(=O)[C@H](CC(C)C)NC(=O)[C@H](CC(=O)O)NC(=O)[C@H](Cc2ccccc2)NC(=O)[C@H](CCC(N)=O)NC(=O)[C@@H](N)CSSC[C@@H](C(N)=O)NC(=O)[C@H](CCCCN)NC1=O`, the k a is 12 M^−1 s^−1 × 10^4 and the k d was 0.018 s⁻¹.

In turn, `CC(C)C[C@@H]1NC(=O)[C@H](CCCNC(=N)N)NC(=O)[C@H](CCCNC(=N)N)NC(=O)[C@H]([C@@H](C)O)NC(=O)[C@H](CO)NC(=O)[C@H](CC(C)C)NC(=O)[C@H](CC(=O)O)NC(=O)[C@H](Cc2ccccc2)NC(=O)[C@H](CCC(N)=O)NC(=O)CCNC(=O)CCNC(=O)[C@H](CCCCN)NC1=O` registered a k a of 5.8 M^−1 s^−1 × 10^4 and a k d of 0.091 s⁻¹.
